PubChem BioAssay AID330 (DTP/NCI, 2004)
Several values for one entry are separate records, joined by “and”; a condition that tells them apart may be missing. Equal entries are not always repeated. Inconclusive results and toxic doses are left out. Peptide text beside a SMILES is read from it.

System: P388 leukemia ip, CD2F1 mice, survival T/C
Test: NCI In Vivo Anticancer Drug Screen. Data for tumor model P388 Leukemia (intraperitoneal) in CD2F1 (CDF1) mice
Settings: endpoint: median survival time, higher = longer survival
Outline: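 Mice carrying the transplanted tumor received test compound or vehicle. Survival was recorded in each group, and the value is the treated-group measurement divided by that of the vehicle-treated control group.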

[1] = dose: 50.0 mg/kg/injection, schedule: Q01DX005 (ip), vehicle: saline with Tween-80
[2] = dose: 100.0 mg/kg/injection, schedule: Q01DX005 (ip), vehicle: saline with Tween-80
[3] = dose: 200.0 mg/kg/injection, schedule: Q01DX005 (ip), vehicle: saline with Tween-80
[4] = dose: 100.0 mg/kg/injection, schedule: Q01DX001 (ip), vehicle: Klucel (hydroxypropylcellulose) (HPC)
[5] = dose: 200.0 mg/kg/injection, schedule: Q01DX001 (ip), vehicle: Klucel (hydroxypropylcellulose) (HPC)
[6] = dose: 400.0 mg/kg/injection, schedule: Q01DX001 (ip), vehicle: Klucel (hydroxypropylcellulose) (HPC)
[7] = dose: 12.5 mg/kg/injection, schedule: Q01DX009 (ip), vehicle: water
[8] = dose: 6.25 mg/kg/injection, schedule: Q01DX005 (ip), vehicle: Klucel (hydroxypropylcellulose) (HPC)
[9] = dose: 12.5 mg/kg/injection, schedule: Q01DX005 (ip), vehicle: Klucel (hydroxypropylcellulose) (HPC)
[10] = dose: 50.0 mg/kg/injection, schedule: Q01DX005 (ip), vehicle: Klucel (hydroxypropylcellulose) (HPC)
[11] = dose: 100.0 mg/kg/injection, schedule: Q01DX005 (ip), vehicle: Klucel (hydroxypropylcellulose) (HPC)
[12] = dose: 200.0 mg/kg/injection, schedule: Q01DX005 (ip), vehicle: Klucel (hydroxypropylcellulose) (HPC)
[13] = dose: 3.12 mg/kg/injection, schedule: Q01DX005 (ip), vehicle: saline

Cc1[nH]nc2c1NC(=O)OC(C)C2 (stereo not given)
T/C [1]: 101 % of control | T/C [2]: 101 % of control | T/C [3]: 106 % of control

Cc1ccc(-c2nc3n(c2C=O)CCS3)cc1
T/C [4]: 112 % of control | T/C [5]: 106 % of control | T/C [6]: 98 % of control

OCC1=CC(O)C2C=COC(C3OC(CO)C(O)C(O)C3O)C12 (stereo not given)
T/C (dose: 60.0 mg/kg/injection, schedule: Q01DX005 (ip), vehicle: saline): 103 % of control | T/C (dose: 120.0 mg/kg/injection, schedule: Q01DX005 (ip), vehicle: saline): 102 % of control | T/C (dose: 240.0 mg/kg/injection, schedule: Q01DX005 (ip), vehicle: saline): 100 % of control

O=C(OC(c1ccccc1)(C(F)(F)F)C(F)(F)F)c1ccc(Cl)cc1
T/C (dose: 100.0 mg/kg/injection, schedule: Q04DX002 (ip), vehicle: Klucel (hydroxypropylcellulose) (HPC)): 92 % of control | T/C (dose: 200.0 mg/kg/injection, schedule: Q04DX002 (ip), vehicle: Klucel (hydroxypropylcellulose) (HPC)): 98 % of control | T/C (dose: 400.0 mg/kg/injection, schedule: Q04DX002 (ip), vehicle: Klucel (hydroxypropylcellulose) (HPC)): 97 % of control

Cc1ccc2c(c1)C(=O)N(CC[P+](c1ccccc1)(c1ccccc1)c1ccccc1)C2=O
T/C (dose: 0.78 mg/kg/injection, schedule: Q01DX009 (ip), vehicle: water): 100 % of control and 113 % of control | T/C (dose: 1.56 mg/kg/injection, schedule: Q01DX009 (ip), vehicle: water): 117 % of control and 120 % of control | T/C (dose: 3.13 mg/kg/injection, schedule: Q01DX009 (ip), vehicle: water): 121 % of control | T/C [7]: 118 % of control

COc1ncnc2c1ccn2C1OC(CO)C(O)C1O (stereo not given)
T/C [8]: 107 % of control | T/C [9]: 89 % of control

Nc1ccccc1Nc1ccncc1
T/C (dose: 25.0 mg/kg/injection, schedule: Q01DX009 (ip), vehicle: suspension in saline): 97 % of control | T/C (dose: 50.0 mg/kg/injection, schedule: Q01DX009 (ip), vehicle: suspension in saline): 100 % of control | T/C (dose: 100.0 mg/kg/injection, schedule: Q01DX009 (ip), vehicle: suspension in saline): 97 % of control

CCOC(=O)/C=C/c1c[nH]c(C(=O)OCC)c1
T/C (dose: 50.0 mg/kg/injection, schedule: Q01DX009 (ip), vehicle: Klucel (hydroxypropylcellulose) (HPC)): 93 % of control | T/C (dose: 100.0 mg/kg/injection, schedule: Q01DX009 (ip), vehicle: Klucel (hydroxypropylcellulose) (HPC)): 91 % of control | T/C (dose: 200.0 mg/kg/injection, schedule: Q01DX009 (ip), vehicle: Klucel (hydroxypropylcellulose) (HPC)): 93 % of control | T/C (dose: 400.0 mg/kg/injection, schedule: Q01DX009 (ip), vehicle: Klucel (hydroxypropylcellulose) (HPC)): 108 % of control

CC(C)C(NC(=O)C(CCCN=C(N)N)NC(=O)C(N)CCCCN)C(N)=O (stereo not drawn) (H-Lys-Arg-Val-NH2; configuration not given here)
T/C [7]: 105 % of control | T/C (dose: 25.0 mg/kg/injection, schedule: Q01DX009 (ip), vehicle: water): 103 % of control | T/C (dose: 50.0 mg/kg/injection, schedule: Q01DX009 (ip), vehicle: water): 99 % of control | T/C (dose: 100.0 mg/kg/injection, schedule: Q01DX009 (ip), vehicle: water): 105 % of control | T/C (dose: 200.0 mg/kg/injection, schedule: Q01DX009 (ip), vehicle: water): 100 % of control

CS1=C2C(=O)CCCC2=Nc2ccccc21 (stereo not given)
T/C (dose: 50.0 mg/kg/injection, schedule: Q01DX005 (ip), vehicle: saline): 97 % of control | T/C (dose: 100.0 mg/kg/injection, schedule: Q01DX005 (ip), vehicle: saline): 100 % of control

O=C1OCCSCCOCCSCCOC(=O)c2cccc1n2
T/C [4]: 96 % of control | T/C [5]: 93 % of control | T/C [6]: 102 % of control

Cc1ccc(C(=O)C2C(=O)C(=O)OC2C2OC(=O)C(=O)C2C(=O)c2ccc(C)cc2)cc1 (stereo not given)
T/C (dose: 60.0 mg/kg/injection, schedule: Q01DX005 (ip), vehicle: saline + Tween-80 + alcohol): 101 % of control | T/C (dose: 120.0 mg/kg/injection, schedule: Q01DX005 (ip), vehicle: saline + Tween-80 + alcohol): 104 % of control | T/C (dose: 240.0 mg/kg/injection, schedule: Q01DX005 (ip), vehicle: saline + Tween-80 + alcohol): 102 % of control

COC(=O)c1ccccc1NC(=O)N1CC1
T/C (dose: 50.0 mg/kg/injection, schedule: Q01DX005 (ip), vehicle: DMSO): 105 % of control | T/C (dose: 100.0 mg/kg/injection, schedule: Q01DX005 (ip), vehicle: DMSO): 118 % of control

Nn1c(N/N=C\c2ccccc2)nnc1N/N=C/c1ccccc1
T/C (dose: 50.0 mg/kg/injection, schedule: Q01DX001 (ip), vehicle: Klucel (hydroxypropylcellulose) (HPC)): 113 % of control | T/C [4]: 105 % of control

CC(O)C(O)C(O)C(=O)NCc1ccccc1 (stereo not given)
T/C [1]: 100 % of control | T/C [2]: 94 % of control | T/C [3]: 99 % of control

CC1=NCC(=O)O1
T/C [10]: 98 % of control | T/C [11]: 98 % of control | T/C [12]: 102 % of control

C[n+]1cc(-c2ccccc2)cc(-c2ccccc2)c1
T/C (dose: 3.12 mg/kg/injection, schedule: Q01DX005 (ip), vehicle: Klucel (hydroxypropylcellulose) (HPC)): 104 % of control | T/C [13]: 103 % of control | T/C [8]: 109 % of control | T/C (dose: 6.25 mg/kg/injection, schedule: Q01DX005 (ip), vehicle: saline with Tween-80): 105 % of control | T/C (dose: 6.25 mg/kg/injection, schedule: Q01DX005 (ip), vehicle: saline): 97 % of control | T/C [9]: 104 % of control | T/C (dose: 12.5 mg/kg/injection, schedule: Q01DX005 (ip), vehicle: saline with Tween-80): 100 % of control | T/C (dose: 12.5 mg/kg/injection, schedule: Q01DX005 (ip), vehicle: saline): 96 % of control | T/C (dose: 25.0 mg/kg/injection, schedule: Q01DX005 (ip), vehicle: saline with Tween-80): 96 % of control

CC[N+](C)(CC)CCOc1ccc(OCC[N+](C)(CC)CC)c2c1C(=O)c1ccccc1C2=O
T/C (dose: 0.78 mg/kg/injection, schedule: Q01DX005 (ip), vehicle: saline): 98 % of control | T/C (dose: 1.56 mg/kg/injection, schedule: Q01DX005 (ip), vehicle: saline): 109 % of control | T/C [13]: 100 % of control

O=C(O)CCC(=O)NNc1nc2ccccc2s1
T/C (dose: 60.0 mg/kg/injection, schedule: Q01DX005 (ip), vehicle: Klucel (hydroxypropylcellulose) (HPC)): 102 % of control | T/C (dose: 120.0 mg/kg/injection, schedule: Q01DX005 (ip), vehicle: Klucel (hydroxypropylcellulose) (HPC)): 104 % of control | T/C (dose: 240.0 mg/kg/injection, schedule: Q01DX005 (ip), vehicle: Klucel (hydroxypropylcellulose) (HPC)): 97 % of control

CCCCN(CCCC)P(=O)(N1CC1)N1CC1
T/C (dose: 6.25 mg/kg/injection, schedule: Q01DX009 (ip), vehicle: saline): 118 % of control | T/C (dose: 16.5 mg/kg/injection, schedule: Q01DX009 (ip), vehicle: saline): 175 % of control | T/C (dose: 100.0 mg/kg/injection, schedule: Q04DX003 (ip), vehicle: saline): 90 % of control

Cc1ccc(S)c(C(O)(C(F)(F)F)C(F)(F)F)c1
T/C (dose: 50.0 mg/kg/injection, schedule: Q01DX009 (ip), vehicle: other): 100 % of control | T/C (dose: 100.0 mg/kg/injection, schedule: Q01DX009 (ip), vehicle: other): 100 % of control | T/C (dose: 200.0 mg/kg/injection, schedule: Q01DX009 (ip), vehicle: other): 100 % of control

O=C(S)CC1(O)CCCCC1
T/C (dose: 100.0 mg/kg/injection, schedule: Q04DX003 (ip), vehicle: Klucel (hydroxypropylcellulose) (HPC)): 99 % of control | T/C (dose: 200.0 mg/kg/injection, schedule: Q04DX003 (ip), vehicle: Klucel (hydroxypropylcellulose) (HPC)): 100 % of control | T/C (dose: 400.0 mg/kg/injection, schedule: Q04DX003 (ip), vehicle: Klucel (hydroxypropylcellulose) (HPC)): 96 % of control

Cc1cc(=O)[nH]c(SCC(=O)c2ccccc2)n1
T/C [10]: 102 % of control | T/C [11]: 99 % of control | T/C [12]: 102 % of control

CC(C)(C)N=C(CCN1CCN(c2ccccc2)CC1)Nc1c(Cl)cccc1Cl
T/C (dose: 12.5 mg/kg/injection, schedule: Q01DX009 (ip), vehicle: saline): 91 % of control | T/C (dose: 25.0 mg/kg/injection, schedule: Q01DX009 (ip), vehicle: saline): 97 % of control | T/C (dose: 50.0 mg/kg/injection, schedule: Q01DX009 (ip), vehicle: saline with Tween-80): 94 % of control | T/C (dose: 50.0 mg/kg/injection, schedule: Q01DX009 (ip), vehicle: saline): 100 % of control | T/C (dose: 100.0 mg/kg/injection, schedule: Q01DX009 (ip), vehicle: saline with Tween-80): 96 % of control
